This note sets out measurements from patent US12139458B2, “(2,5-dioxopyrrolidin-1-yl)(phenyl)-acetamide derivatives and their use in the treatment of neurological diseases” (UNIWERSYTET JAGIELLONSKI, priority 2019, dated 2024).

Structures can show the parent of a compound that is named as a salt.

Data set [1] concerns male Swiss albino mice (CD-1). The experiment in a line: Psychomotor seizure test 6 Hz (32 mA). The format is in vivo. Conditions: screening, 100 mg/kg i.p., 0.5 h, mice; for responders at 100 mg/kg: Mus musculus, ip, read-out: 6 Hz (32 mA): number of mice protected/number of mice tested (converted). As for the experimental part: (§1) The male Swiss albino mice (CD-1) weighing 18-26 g were used. All procedures were carried out in accordance with applicable Polish and international guidelines on the ethics of animal testing, after obtaining appropriate institutional approval. The substances were administered intraperitoneally (i.p.), in 1% aqueous solution of Tween, as single injections with a volume of 10 ml/kg, 30 minutes before the given test. Screening was performed on groups consisted of 4 mice. The average effective dose (ED50) in given test and toxic dose in the rotarod test (TD50) was estimated based on the results obtained in 3-4 groups of animals consisting of 6 mice. All tests were carried out based on the procedures described in the specialist literature.
In the 6 Hz test, seizures were induced by an electric stimulus of 32 mA and/or 44 mA and a frequency of 6 pulses per second. An electrical pulse was generated using an electric shock generator (ECT Unit 57800; Ugo Basile, Gemonio, Italy) and delivered to the animal using ocular electrodes. Before starting the test, the eye surface was gently moistened with a solution of local anesthetic (1% lidocaine solution). The study was conducted 30 minutes after intraperitoneal administration of the compounds at various doses. An electrical pulse was delivered continuously for a period of 3 seconds, followed by observation of the animal for a period of 10 seconds. During this time, immobility or stun associated with rearing, forelimb clonus, twitching of the vibrissae and Straub's tail were observed. These symptoms persist throughout the observation period, indicating the occurrence of psychomotor seizures in mice. Mice resuming normal behavior within 10 s after stimulation were considered as protected (Barton, M. E.; Klein, B. D.; Wolf, H. H.; White, H. S. Epilepsy Res. 2001, 47, 217-227; Wojda, E.; Wlaź, A.; Patsalos, P. N.; Łuszczki, J. J. Epilepsy Res. 2009, 86, 163-174).
(§2) To perform a statistical evaluation of the results, one-way ANOVA variance analysis and Dunnett's post hoc test (multiple comparison test) were used. The value at the significance level p<0.05 was considered statistically significant.

Data set [2] deals with male Swiss albino mice (CD-1). The experiment in a line: Subcutaneous pentylenetetrazole seizure test (scPTZ). The format is in vivo. Conditions: screening, 100 mg/kg i.p., 0.5 h, mice; for responders at 100 mg/kg: Mus musculus, ip, read-out: scPTZ: number of mice protected/number of mice tested (converted). As for the experimental part:
as §1
In the scPTZ test, seizures were induced by subcutaneous administration of pentylenetetrazole (PTZ) at a dose of 100 mg/kg. This caused clonic seizures with accompanying loss of the righting reflex. Test compounds were administered 30 minutes before the experiment. After PTZ administration, the animals were placed individually in transparent containers and observed for a period of 30 minutes for the occurrence of clonic seizures. During this time, the latency of the first onset of clonic seizures, defined as clonus of the whole body lasting at least 3 seconds with loss of the righting reflex and the number of seizure episodes during the test were noted and compared with control group. The absence of clonic convulsions within the observed time period was interpreted as the compound's ability to protect against PTZ-induced seizures (Ferreri, G.; Chimirri, A.; Russo, E.; Gitto, R.; Gareri, P.; De Sarro, A.; De Sarro, G. Pharmacol. Biochem. Behav. 2004, 77, 85-94; Łączkowski, K.; Sałat, K.; Misiura, K.; Podkowa, A.; Malikowska, N. J. Enzyme Inhib. Med. Chem. 2016, 31, 1576-82).
as §2

Data set [3] concerns male Swiss albino mice (CD-1). Nature of the data set: Maximal electroshock seizure test (MES). The format is in vivo. The following applies: screening, 100 mg/kg i.p., 0.5 h, mice; for responders at 100 mg/kg: Mus musculus, ip, read-out: MES: number of mice protected/number of mice tested (converted). As for the experimental part:
as §1
In the MES test, the seizures were induced by an electrical stimulus lasting of 0.2 s duration, 500 V voltage and 25 mA intensity. The electrical stimuli was generated using an electric shock generator (Rodent shocker, Type 221, Hugo Sachs Elektronik, Germany) and delivered to the animal using electrodes placed on the auricles. The study was conducted 30 minutes after intraperitoneal administration of the compounds at various doses. During the experiment, the number of animals that experienced a seizure episode in the form of tonic extension of the hind limbs was counted (Kamiński, K.; Rapacz, A.; Łuszczki, J. J.; Latacz, G.; Obniska, J.; Kieć-Kononowicz, K.; Filipek, B. Bioorg. Med. Chem. 2015, 23, 2548-2561; Castel-Branco, M. M.; Alves, G. L.; Figueiredo, I. V.; Falcão, A. C.; Caramona, M. M. Methods Find. Exp. Clin. Pharmacol. 2009, 31, 101-106).
as §2

The term melting point denotes the temperature, or range, at which the solid turns liquid. In turn, `O=C(C(Cc1ccccc1)N1C(=O)CCC1=O)N1CCN(c2cccc(C(F)(F)F)c2)CC1` (stereo not drawn) (as salt: salt) [Example 23, 1-(1-Oxo-3-phenyl-1-(4-(3-(trifluoromethyl)phenyl)piperazin-1-yl)propan-2-yl)pyrrolidine-2,5-dione] returned a melting point of 126.1 to 127.2 °C.

For `O=C(C(c1ccccc1)N1C(=O)CCC1=O)N1CCN(c2ccc(C(F)(F)F)cc2)CC1` (racemic) [Compound 7, 1-(2-Oxo-1-phenyl-2-(4-(4-(trifluoromethyl)phenyl)piperazin-1-yl)ethyl)pyrrolidine-2,5-dione], the melting point fell in the range of 173.2 to 174.3 °C. Besides, the “6 Hz (32 mA): number of mice protected/number of mice tested” value in data set [1] is recorded as “¾”. In addition, the “scPTZ: number of mice protected/number of mice tested” value in data set [2] is “¾”. Further, in data set [3], the “MES: number of mice protected/number of mice tested” value is on record as “¾”.

`O=C(C(c1ccccc1)N1C(=O)CCC1=O)N1CCN(c2cc(C(F)(F)F)cc(C(F)(F)F)c2)CC1` (racemic) [Compound 8, 1-(2-(4-(3,5-Bis(trifluoromethyl)phenyl)piperazin-1-yl)-2-oxo-1-phenylethyl)pyrrolidine-2,5-dione]: the melting point lay in the range of 228.1 to 229.4 °C. Besides, the “6 Hz (32 mA): number of mice protected/number of mice tested” value in data set [1] is listed as “¾”. Further, the responders at 100 mg/kg in data set [2] was 100%. Moreover, the responders at 100 mg/kg in data set [3] is 100%.

The molecule `O=C(C(c1ccccc1)N1C(=O)CCC1=O)N1CCN(c2ccc(OC(F)(F)F)cc2)CC1` (racemic) [Compound 11, 1-(2-Oxo-1-phenyl-2-(4-(4-(trifluoromethoxy)phenyl)piperazin-1-yl)ethyl)pyrrolidine-2,5-dione] registered a melting point of 102.3 to 103.5 °C. The “6 Hz (32 mA): number of mice protected/number of mice tested” value in data set [1] is listed as “¾”. For the same molecule, the responders at 100 mg/kg in data set [2] was 50%. For the same molecule, the “MES: number of mice protected/number of mice tested” value in data set [3] is on record as “¾”.

`O=C(C(c1ccccc1)N1C(=O)CCC1=O)N1CCN(c2ccc3ccccc3c2)CC1` (racemic) [Compound 15, 1-(2-(4-(Naphth-2-yl)piperazin-1-yl)-2-oxo-1-phenylethyl)pyrrolidine-2,5-dione] gave a melting point of 197.1 to 198.5 °C. For the same molecule, in data set [1], the “6 Hz (32 mA): number of mice protected/number of mice tested” value is reported as “¾”. Also, the “scPTZ: number of mice protected/number of mice tested” value in data set [2] is given as “¾”. Besides, the responders at 100 mg/kg in data set [3] is 50%.

`O=C(C(c1ccccc1)N1C(=O)CCC1=O)N1CCN(c2ccc3sccc3c2)CC1` (racemic) [Compound 16, 1-(2-(4-(Benzo[b]thiophen-5-yl)piperazin-1-yl)-2-oxo-1-phenylethyl)pyrrolidine-2,5-dione] yielded a melting point of 164.1 to 165.3 °C. Besides, the “6 Hz (32 mA): number of mice protected/number of mice tested” value in data set [1] is listed as “¾”. In data set [2], the “scPTZ: number of mice protected/number of mice tested” value is recorded as “¾”. For the same molecule, in data set [3], the “MES: number of mice protected/number of mice tested” value is given as “¾”.

On to `O=C(C(c1ccccc1)N1C(=O)CCC1=O)N1CCC(c2cccc(Cl)c2)CC1` (racemic) [Compound 18, 1-(2-(4-(3-Chlorophenyl)piperidin-1-yl)-2-oxo-1-phenylethyl)pyrrolidine-2,5-dione], for which the melting point was in the range of 111.8 to 113.4 °C. The “6 Hz (32 mA): number of mice protected/number of mice tested” value in data set [1] is reported as “¾”. Further, the “scPTZ: number of mice protected/number of mice tested” value in data set [2] was “¾”. For the same molecule, the “MES: number of mice protected/number of mice tested” value in data set [3] is “¾”.

For the molecule `O=C(C(c1ccccc1)N1C(=O)CCC1=O)N1CCC(c2cccc(OC(F)(F)F)c2)CC1` (racemic) [Compound 20, 1-(2-Oxo-1-phenyl-2-(4-(3-(trifluoromethoxy)phenyl)piperidin-1-yl)ethyl)pyrrolidine-2,5-dione], the melting point fell in the range of 112.1 to 113.2 °C. For the same molecule, the “6 Hz (32 mA): number of mice protected/number of mice tested” value in data set [1] is reported as “¾”. Also, the responders at 100 mg/kg in data set [2] was 50%. Besides, the responders at 100 mg/kg in data set [3] is 100%.

With `O=C([C@@H](c1ccccc1)N1C(=O)CCC1=O)N1CCN(c2cc(Cl)cc(Cl)c2)CC1` [(R)-4, (R)-1-(2-(4-(3,5-dichlorophenyl)piperazin-1-yl)-2-oxo-1-phenylethyl)pyrrolidine-2,5-dione], the melting point was 174.3 to 175.5 °C. Moreover, the responders at 100 mg/kg in data set [1] was 100%. Moreover, the responders at 100 mg/kg in data set [2] was 50%. For the same molecule, in data set [3], the responders at 100 mg/kg was 100%.

Regarding `O=C([C@@H](c1ccccc1)N1C(=O)CCC1=O)N1CCN(c2cccc(SC(F)(F)F)c2)CC1` [(R)-12], the “6 Hz (32 mA): number of mice protected/number of mice tested” value in data set [1] is 4/4. Further, the “scPTZ: number of mice protected/number of mice tested” value in data set [2] is “¼”. In addition, the “MES: number of mice protected/number of mice tested” value in data set [3] is 4/4.

Turning to `O=C(C(c1ccccc1)N1C(=O)CCC1=O)N1CCN(c2ccc3oncc3c2)CC1` (stereo not drawn) [Compound 17, 1-(2-(4-(1,2-Benzoxazol-5-il)piperazin-1-yl)-2-oxo-1-phenylethyl)pyrrolidine-2,5-dione], in data set [1], the “6 Hz (32 mA): number of mice protected/number of mice tested” value was “¾”. For the same molecule, the “scPTZ: number of mice protected/number of mice tested” value in data set [2] was “¾”. For the same molecule, the “MES: number of mice protected/number of mice tested” value in data set [3] is “¾”.

In the case of `O=C(C(Cc1ccccc1)N1C(=O)CCC1=O)N1CCN(c2ccccc2)CC1` (stereo not drawn) [Compound 21, 1-(1-Oxo-3-phenyl-1-(4-phenylpiperazin-1-yl)prop-2-yl)pyrrolidine-2,5-dione], the melting point was 121.7 to 123.2 °C.

`O=C(C(Cc1ccccc1)N1C(=O)CCC1=O)N1CCN(c2cccc(Cl)c2)CC1` (stereo not drawn) [Compound 22, 1-(1-(4-(3-Chlorophenyl)piperazin-1-yl)-1-oxo-3-phenylpropan-2-yl)pyrrolidine-2,5-dione] gave a melting point of 114.3 to 116.2 °C.

`O=C(C(Cc1ccccc1)N1C(=O)CCC1=O)N1CCN(c2cccc(-c3ccccc3)c2)CC1` (stereo not drawn) [Compound 24, 1-(1-(4-([1,1′-Biphenyl]-3-yl)piperazin-1-yl)-1-oxo-3-phenylpropan-2-yl)pyrrolidine-2,5-dione] yielded a melting point of 119.1 to 120 °C.

In turn, `O=C(C(Cc1ccccc1)N1C(=O)CCC1=O)N1CCN(c2cccc(OC(F)(F)F)c2)CC1` (stereo not drawn) [Compound 25, 1-(1-Oxo-3-phenyl-1-(4-(3-(trifluoromethoxy)phenyl)piperazin-1-yl)propan-2-yl)pyrrolidine-2,5-dione] displayed a melting point of 104.4 to 105.5 °C.

The molecule `CNC1CC(=O)N(C(C(=O)N2CCN(c3cccc(C(F)(F)F)c3)CC2)c2ccccc2)C1=O.Cl` (stereo not drawn) [Compound 48, 3-(Methylamino)-1-(2-oxo-1-phenyl-2-(4-(3-(trifluoromethyl)phenyl)piperazin-1-yl)ethyl)pyrrolidine-2,5-dione hydrochloride] returned a melting point of 161.2 to 163.4 °C. The responders at 100 mg/kg in data set [1] is 100%. For the same molecule, in data set [2], the “scPTZ: number of mice protected/number of mice tested” value is “¾”. Moreover, in data set [3], the responders at 100 mg/kg is 100%.

Take `CN(C)C1CC(=O)N(C(C(=O)N2CCN(c3cccc(C(F)(F)F)c3)CC2)c2ccccc2)C1=O.Cl` (stereo not drawn) [Compound 49, 3-(Dimethylamino)-1-(2-oxo-1-phenyl-2-(4-(3-(trifluoromethyl)phenyl)-piperazin-1-yl)ethyl)pyrrolidine-2,5-dione hydrochloride]: the melting point lay within 157.8 to 159.2 °C. Further, in data set [1], the responders at 100 mg/kg was 100%. For the same molecule, in data set [2], the “scPTZ: number of mice protected/number of mice tested” value is on record as “¾”. Also, in data set [3], the responders at 100 mg/kg was 100%.
